Laboratory results published in patent publication US8236791B2, “Assays for S100 inhibitors” (Albert Einstein College of Medicine of Yeshiva University, priority 2005, dated 2012).

What was measured:
S100A4 [1] = molecular target: T1, S100A4 (Homo sapiens, UniProt P26447); assay: S100A4 biosensor (Mero-S100A4) fluorescence assay for S100A4 inhibitors; type: biochemical; conditions: screening assay: 5 μM S100A4 biosensor (dimer), 100 μM FDA approved drug, 0.3 mM CaCl2; controls: no addition 8475, calcium 14996, calcium + EGTA 6088
T1 construct: It is a chemical label, not a fused protein
T1 sequence (P26447 whole entry C3A/C76A/C86A, form open, the tested form may be a part): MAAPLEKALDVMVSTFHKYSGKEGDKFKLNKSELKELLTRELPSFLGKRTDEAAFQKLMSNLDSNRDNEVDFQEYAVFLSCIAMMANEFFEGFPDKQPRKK
Source text: We produced and characterized a fluorescent analog of S100A4 (Mero-S100A4) that reports calcium binding, and thus serves to identify activated S100A4 (Garrett et al., 2004). To produce the S100A4 biosensor that monitors protein activation (i.e., calcium binding) Cys81 was derivatized with the ISO-IAA dye to a stoichiometry of 1:1 (FIG. 2).
Binding of the Mero-S100A4 to myosin-IIA results in only a small increase in fluorescence intensity (FIG. 3, right panel). These observations indicate that the S100A4 biosensor reports only calcium binding and not target binding. In addition, calcium binding studies indicate that mutagenesis and dye attachment have not altered the binding affinity of the labeled S100A4 for calcium (data not shown).
A total of 333 FDA approved drugs were tested for their ability to inhibit S100A4, using the biosensor described in Example 1. Screening assays used 5 μM S100A4 biosensor (dimer concentration), 100 μM FDA approved drug, buffer: 50 mM Tris-HCl, pH 7.5, 150 mM NaCl, 0.3 mM CaCl2, 0.02% NaN3, 1 mM DTT, 10% DMSO. […] 100 μl assay volume.

S100A4 [2] = molecular target: T1, S100A4; assay: as above; type: biochemical; conditions: 5 μM S100A4 biosensor, 0-400 μM small molecule inhibitor, 0.3 mM CaCl2 buffer

| SMILES | Arbitrary Fluorescence Units (S100A4 [1]) | IC50 (S100A4 [2]) |
| --- | --- | --- |
| CN1CCN(CCCN2c3ccccc3Sc3ccc(C(F)(F)F)cc32)CC1 [trifluoperazine] | 7939 Arbitrary Fluorescence Units | 34 µM |
| CC(=O)N1CCN(c2ccc(OCC3COC(Cn4ccnc4)(c4ccc(Cl)cc4Cl)O3)cc2)CC1 (stereo not drawn) [ketoconazole] | 7759 Arbitrary Fluorescence Units | 23 µM |
| CN(C)C(=O)C(CCN1CCC(O)(c2ccc(Cl)cc2)CC1)(c1ccccc1)c1ccccc1 [loperamide] | 3820 Arbitrary Fluorescence Units | 18 µM |
| CC(C)COCC(CN(Cc1ccccc1)c1ccccc1)N1CCCC1 (stereo not drawn) [bepridil] | 6954 Arbitrary Fluorescence Units | 35 µM |
| OCCN1CCN(CCCN2c3ccccc3Sc3ccc(Cl)cc32)CC1 [perphenazine] | 7399 Arbitrary Fluorescence Units | 164 µM |
| CN1CCN(CCCN2c3ccccc3Sc3ccc(Cl)cc32)CC1 [prochlorperazine] | 5505 Arbitrary Fluorescence Units | 33 µM |
| OCCN1CCN(CCCN2c3ccccc3Sc3ccc(C(F)(F)F)cc32)CC1 [fluphenazine] | 6908 Arbitrary Fluorescence Units | 46 µM |

Second part, the molecule after the results:

| Arbitrary Fluorescence Units (S100A4 [1]) | IC50 (S100A4 [2]) | SMILES |
| --- | --- | --- |
| 7977 Arbitrary Fluorescence Units | 145 µM | CN(C)CC/C=C1/c2ccccc2Sc2ccc(Cl)cc21 [chlorprothixene] |
| 6449 Arbitrary Fluorescence Units | 59 µM | OCCN1CCN(CC/C=C2/c3ccccc3Sc3ccc(C(F)(F)F)cc32)CC1 [flupenthixol-cis] |
| 7898 Arbitrary Fluorescence Units | 133 µM | CN(C)CCCN1c2ccccc2CCc2ccc(Cl)cc21 [clomipramine] |
| – | 256 µM | CN1CCC(=C2c3ccccc3C=Cc3ccccc32)CC1 [cyproheptadine] |
